Test results as given in ChEMBL document CHEMBL4339253, “Anthraquinone-Based Specialized Metabolites from Rhizomes of Bulbine natalensis” (J Nat Prod, 2019).
pIC50: −log10 of the molar value. The source made the active and inactive calls. The calls are words filed in the database; no cut-off is given here.

How the values were obtained:
Type in all cases: functional, organism-based
[1] = test system: Mycobacterium intracellulare; assay: Antimicrobial activity against Mycobacterium intracellulare assessed as inhibition of microbial growth up to 20 ug/mL
Candida albicans [2] = assay: Antimicrobial activity against Candida albicans ATCC 90028 assessed as inhibition of microbial growth up to 20 ug/mL by CLSI based method
Aspergillus fumigatus [3] = assay: Antimicrobial activity against Aspergillus fumigatus ATCC 90906 assessed as inhibition of microbial growth up to 20 ug/mL by CLSI based method
Cryptococcus neoformans [4] = assay: Antimicrobial activity against Cryptococcus neoformans ATCC 90113 assessed as inhibition of microbial growth up to 20 ug/mL by CLSI based method
Staphylococcus aureus [5] = assay: Antimicrobial activity against methicillin-resistant Staphylococcus aureus ATCC 43300 assessed as inhibition of microbial growth up to 20 ug/mL by CLSI based method
Escherichia coli [6] = assay: Antimicrobial activity against Escherichia coli ATCC 35218 assessed as inhibition of microbial growth up to 20 ug/mL by CLSI based method
Pseudomonas aeruginosa [7] = assay: Antimicrobial activity against Pseudomonas aeruginosa ATCC 27853 assessed as inhibition of microbial growth up to 20 ug/mL by CLSI based method
Candida albicans [8] = assay: Antimicrobial activity against Candida albicans ATCC 90028 assessed as inhibition of microbial growth by CLSI based method
Aspergillus fumigatus [9] = assay: Antimicrobial activity against Aspergillus fumigatus ATCC 90906 assessed as inhibition of microbial growth by CLSI based method
Cryptococcus neoformans [10] = assay: Antimicrobial activity against Cryptococcus neoformans ATCC 90113 assessed as inhibition of microbial growth by CLSI based method
Staphylococcus aureus [11] = assay: Antimicrobial activity against methicillin-resistant Staphylococcus aureus ATCC 43300 assessed as inhibition of microbial growth by CLSI based method
Escherichia coli [12] = assay: Antimicrobial activity against Escherichia coli ATCC 35218 assessed as inhibition of microbial growth by CLSI based method
Pseudomonas aeruginosa [13] = assay: Antimicrobial activity against Pseudomonas aeruginosa ATCC 27853 assessed as inhibition of microbial growth by CLSI based method

Compound | growth inhibition (GI) [1] | growth inhibition (GI) (Candida albicans [2]) | growth inhibition (GI) (Aspergillus fumigatus [3]) | growth inhibition (GI) (Cryptococcus neoformans [4]) | growth inhibition (GI) (Staphylococcus aureus [5]) | growth inhibition (GI) (Escherichia coli [6]) | growth inhibition (GI) (Pseudomonas aeruginosa [7]) | pIC50 (Candida albicans [8]) | pIC50 (Aspergillus fumigatus [9]) | pIC50 (Cryptococcus neoformans [10]) | pIC50 (Staphylococcus aureus [11]) | pIC50 (Escherichia coli [12]) | pIC50 (Pseudomonas aeruginosa [13])
COc1cc(OC)c(C2=C3C(=O)C(C)=CC(O)=C3C(=O)c3c(O)cccc32)c(O)c1C(C)=O | inactive | inactive | inactive | inactive | inactive | inactive | inactive | – | – | – | – | – | –
CO/N=C(\C(=O)N[C@@H]1C(=O)N2C(C(=O)O)=C(COC(C)=O)CS[C@H]12)c1csc(N)n1 [CEFOTAXIME] | – | – | – | – | – | – | – | < 3.70 | < 3.70 | < 3.70 | 4.52 | 7.00 | 7.52
C[C@@H](O)[C@H]1C(=O)N2C(C(=O)O)=C(S[C@@H]3CN[C@H](C(=O)N(C)C)C3)[C@H](C)[C@H]12 [MEROPENEM] | – | – | – | – | – | – | – | < 3.52 | < 3.52 | < 3.52 | 5.00 | 8.00 | 7.70
Cc1cc(O)c2c(c1)C(O)([C@@H]1O[C@@H](C)[C@H](O)[C@@H](O)[C@H]1O)c1ccc([C@H]3c4cccc(O)c4C(=O)c4c(O)cc(C)c(O)c43)c(O)c1C2=O (some centres undefined) | – | – | – | – | – | – | – | < 4.52 | < 4.52 | < 4.52 | 4.70 | – | –
C[C@@H]1[C@H](O)[C@@H](C)/C=C/C=C/C=C/C=C/C=C/C=C/C=C/[C@H](O[C@@H]2O[C@H](C)[C@@H](O)[C@H](N)[C@@H]2O)C[C@@H]2O[C@](O)(C[C@@H](O)C[C@@H](O)[C@H](O)CC[C@@H](O)C[C@@H](O)CC(=O)O[C@H]1C)C[C@H](O)[C@H]2C(=O)O [AMPHOTERICIN B] | – | – | – | – | – | – | – | > 7.00 | 6.00 | 6.70 | < 4.00 | – | –
COc1cccc2cc3c(c(O)c12)[C@@H](C)OC3 | inactive | inactive | inactive | inactive | inactive | inactive | inactive | – | – | – | – | – | –
CN[C@H](CC(C)C)C(=O)N[C@H]1C(=O)N[C@@H](CC(N)=O)C(=O)N[C@H]2C(=O)N[C@H]3C(=O)N[C@H](C(=O)N[C@H](C(=O)O)c4cc(O)cc(O)c4-c4cc3ccc4O)[C@H](O)c3ccc(c(Cl)c3)Oc3cc2cc(c3O[C@@H]2O[C@H](CO)[C@@H](O)[C@H](O)[C@H]2O[C@H]2C[C@](C)(N)[C@H](O)[C@H](C)O2)Oc2ccc(cc2Cl)[C@H]1O [VANCOMYCIN] | – | – | – | – | – | – | – | < 4.15 | < 4.15 | < 4.15 | 6.40 | 7.40 | < 7.15
CC1=CC(O)=C2C(=O)c3c(O[C@@H]4O[C@H](CO)[C@@H](O)[C@H](O)[C@H]4O)cccc3C(c3ccc4c(c3O)C(=O)c3c(O)cc(C)cc3C4(O)[C@@H]3O[C@@H](C)[C@H](O)[C@@H](O)[C@H]3O)=C2C1=O (some centres undefined) | inactive | inactive | inactive | inactive | inactive | inactive | inactive | – | – | – | – | – | –
COc1cc(O)c(C(C)=O)c(O)c1C1=C(C)C=C(O)C2C(=O)c3c(O)cccc3C(=O)C12 (centres undefined) | inactive | inactive | inactive | inactive | inactive | inactive | inactive | – | – | – | – | – | –
COc1cccc(OC)c1C(=O)N[C@@H]1C(=O)N2[C@@H]1SC(C)(C)[C@@H]2C(=O)O [METHICILLIN] | – | – | – | – | – | – | – | < 3.52 | < 3.52 | < 3.52 | 4.52 | – | 6.52
COc1cc(OC)c(C2=C(C)C=C(O)C3C(=O)c4c(O[C@@H]5O[C@H](CO[C@@H]6O[C@H](CO)[C@@H](O)[C@H](O)[C@H]6O)[C@@H](O)[C@H](O)[C@H]5O)cccc4C(=O)C23)c(O)c1C(C)=O (some centres undefined) | inactive | inactive | inactive | inactive | inactive | inactive | inactive | – | – | – | – | – | –
COc1cc(OC)c(C2=C(C)C=C(O)C3C(=O)c4c(O)cccc4C(=O)C23)c(O)c1C(C)=O (centres undefined) | inactive | inactive | inactive | inactive | inactive | inactive | inactive | – | – | – | – | – | –
COc1cc(O)c2c(c1)C(=O)c1cc(O[C@@H]3O[C@H](CO)[C@@H](O)[C@H](O)[C@H]3O)c(C(=O)O)c(C)c1C2=O | inactive | inactive | inactive | inactive | inactive | inactive | inactive | – | – | – | – | – | –
Cc1cc(O)c2c(c1)C(O)([C@@H]1O[C@@H](C)[C@H](O)[C@@H](O)[C@H]1O)c1ccc([C@H]3c4cccc(O)c4C(=O)c4c(O)cc(C)c(O[C@@H]5OC[C@@H](O)[C@H](O)[C@H]5O)c43)c(O)c1C2=O (some centres undefined) | inactive | inactive | inactive | inactive | inactive | inactive | inactive | – | – | – | – | – | –
OC(Cn1cncn1)(Cn1cncn1)c1ccc(F)cc1F [FLUCONAZOLE] | – | – | – | – | – | – | – | – | < 3.52 | 5.30 | < 3.52 | < 6.52 | < 6.52
CC1=CC(O)=C2C(=O)c3c(O)cccc3C(c3ccc4c(c3O)C(=O)c3c(O)cc(C)cc3C4=O)=C2C1=O | inactive | inactive | inactive | inactive | inactive | inactive | inactive | – | – | – | – | – | –
